Experiment [1] deals with Serratia marcescens. Briefly: Antibacterial activity against levofloxacin susceptible Serratia marcescens assessed as percent susceptible isolates by CLSI M7-A7 method. The experiment is classed as functional.
The test system of experiment [2] is Acinetobacter lwoffii. Briefly: Antibacterial activity against Acinetobacter lwoffii assessed as percent susceptible isolates by CLSI M7-A7 method. The experiment is classed as functional.
The test system of experiment [3] is Serratia marcescens. Briefly: Antibacterial activity against Serratia marcescens by CLSI M7-A7 method. The experiment is classed as functional.
For experiment [4], the system named is Proteus vulgaris. The experiment is described as follows: Antibacterial activity against Proteus vulgaris assessed as percent susceptible isolates by CLSI M7-A7 method. The experiment is classed as functional.
Experiment [5] relates to Stenotrophomonas maltophilia. The experiment is described as follows: Antibacterial activity against non-levofloxacin susceptible Stenotrophomonas maltophilia assessed as percent susceptible isolates by CLSI M7-A7 method. The experiment is classed as functional.
In experiment [6] the test system is Pseudomonas aeruginosa. Briefly: Antibacterial activity against ciprofloxacin-susceptible Pseudomonas aeruginosa by CLSI M7-A7 method. The experiment is classed as functional.
The test system of experiment [7] is Proteus vulgaris. Briefly: Antibacterial activity against Proteus vulgaris by CLSI M7-A7 method. The experiment is classed as functional.
The subject of experiment [8] is Klebsiella aerogenes. Briefly: Antibacterial activity against Enterobacter aerogenes assessed as percent susceptible isolates by CLSI M7-A7 method. In kind it is functional.
Experiment [9] has as its system Acinetobacter calcoaceticus. The experiment is described as follows: Antibacterial activity against Acinetobacter calcoaceticus by CLSI M7-A7 method. In kind it is functional.
Experiment [10] relates to Enterobacter cloacae. The experiment is described as follows: Antibacterial activity against Enterobacter cloacae assessed as percent susceptible isolates by CLSI M7-A7 method. The experiment is classed as functional.
Experiment [11] relates to Stenotrophomonas maltophilia. The experiment is described as follows: Antibacterial activity against levofloxacin-susceptible Stenotrophomonas maltophilia by CLSI M7-A7 method. The experiment is classed as functional.
Experiment [12] deals with Citrobacter freundii. Briefly: Antibacterial activity against Citrobacter freundii assessed as percent susceptible isolates by CLSI M7-A7 method. The experiment is classed as functional.
In experiment [13] the test system is Stenotrophomonas maltophilia. Briefly: Antibacterial activity against levofloxacin-susceptible Stenotrophomonas maltophilia assessed as assessed as percent susceptible isolates by CLSI M7-A7 method. In kind it is functional.
For experiment [14], the system named is Acinetobacter baumannii. Briefly: Antibacterial activity against Acinetobacter baumannii assessed as percent susceptible isolates by CLSI M7-A7 method. In kind it is functional.
Experiment [15] concerns Proteus mirabilis. Briefly: Antibacterial activity against Proteus mirabilis assessed as percent susceptible isolates by CLSI M7-A7 method. In kind it is functional.
Experiment [16] deals with Klebsiella pneumoniae. The experiment is described as follows: Antibacterial activity against Klebsiella pneumoniae by CLSI M7-A7 method. The experiment is classed as functional.
Experiment [17] deals with Pseudomonas aeruginosa. The experiment is described as follows: Antibacterial activity against non-ciprofloxacin-susceptible Pseudomonas aeruginosa by CLSI M7-A7 method. The experiment is classed as functional.
For experiment [18], the system named is Pseudomonas aeruginosa. The experiment is described as follows: Antibacterial activity against ciprofloxacin-susceptible Pseudomonas aeruginosa assessed as percent susceptible isolates by CLSI M7-A7 method. In kind it is functional.
Experiment [19] relates to Klebsiella pneumoniae. Briefly: Antibacterial activity against Klebsiella pneumoniae assessed as percent susceptible isolates by CLSI M7-A7 method. The experiment is classed as functional.
Experiment [20] has as its system Enterobacter cloacae. The experiment is described as follows: Antibacterial activity against Enterobacter cloacae by CLSI M7-A7 method. The experiment is classed as functional.
Experiment [21] deals with Pseudomonas aeruginosa. Briefly: Antibacterial activity against non-ciprofloxacin-susceptible Pseudomonas aeruginosa assessed as percent susceptible isolates by CLSI M7-A7 method. The experiment is classed as functional.
Experiment [22] concerns Acinetobacter calcoaceticus. The experiment is described as follows: Antibacterial activity against Acinetobacter calcoaceticus assessed as percent susceptible isolates by CLSI M7-A7 method. The experiment is classed as functional.
For experiment [23], the system named is Citrobacter freundii. Briefly: Antibacterial activity against Citrobacter freundii by CLSI M7-A7 method. The experiment is classed as functional.
Experiment [24] has as its system Stenotrophomonas maltophilia. Briefly: Antibacterial activity against non-levofloxacin susceptible Stenotrophomonas maltophilia by CLSI M7-A7 method. In kind it is functional.
For experiment [25], the system named is Proteus mirabilis. The experiment is described as follows: Antibacterial activity against Proteus mirabilis by CLSI M7-A7 method. In kind it is functional.
Experiment [26] relates to Klebsiella aerogenes. The experiment is described as follows: Antibacterial activity against Enterobacter aerogenes by CLSI M7-A7 method. The experiment is classed as functional.
For experiment [27], the system named is Acinetobacter lwoffii. Briefly: Antibacterial activity against Acinetobacter lwoffii by CLSI M7-A7 method. In kind it is functional.
Experiment [28] has as its system Acinetobacter baumannii. The experiment is described as follows: Antibacterial activity against Acinetobacter baumannii by CLSI M7-A7 method. The experiment is classed as functional.
Experiment [29] concerns Staphylococcus epidermidis.
The test system of experiment [30] is Staphylococcus epidermidis. This is another data set of the same source.
Experiment [31] relates to Staphylococcus haemolyticus. Briefly: Antibacterial activity against Staphylococcus haemolyticus assessed as percent susceptible isolates by CLSI M100-S18 method. The experiment is classed as functional.
Experiment [32] deals with Staphylococcus epidermidis. The experiment is described as follows: Antibacterial activity against ciprofloxacin-susceptible and methicillin-resistant Staphylococcus epidermidis by CLSI M100-S18 method. The experiment is classed as functional.
The test system of experiment [33] is Staphylococcus hominis. The experiment is described as follows: Antibacterial activity against Staphylococcus hominis by CLSI M100-S18 method. In kind it is functional.
Experiment [34] concerns Staphylococcus epidermidis. Briefly: Antibacterial activity against non-ciprofloxacin-susceptible and methicillin-susceptible Staphylococcus epidermidis by CLSI M100-S18 method. The experiment is classed as functional.
Experiment [35] relates to Staphylococcus aureus. The experiment is described as follows: Antibacterial activity against ciprofloxacin-susceptible and methicillin-resistant Staphylococcus aureus assessed as percent susceptible isolates by CLSI M100-S18 method. The experiment is classed as functional.
Experiment [36] concerns Staphylococcus saprophyticus. The experiment is described as follows: Antibacterial activity against Staphylococcus saprophyticus by CLSI M100-S18 method. The experiment is classed as functional.
In experiment [37] the test system is Staphylococcus haemolyticus. Briefly: Antibacterial activity against Staphylococcus haemolyticus by CLSI M100-S18 method. In kind it is functional.
The subject of experiment [38] is Staphylococcus epidermidis. Briefly: Antibacterial activity against ciprofloxacin-susceptible and methicillin-resistant Staphylococcus epidermidis assessed as percent susceptible isolates by CLSI M100-S18 method. The experiment is classed as functional.
Experiment [39] deals with Staphylococcus epidermidis. Briefly: Antibacterial activity against non-ciprofloxacin-susceptible and methicillin-susceptible Staphylococcus epidermidis assessed as percent susceptible isolates by CLSI M100-S18 method. The experiment is classed as functional.
The test system of experiment [40] is Staphylococcus warneri. The experiment is described as follows: Antibacterial activity against Staphylococcus warneri by CLSI M100-S18 method. The experiment is classed as functional.
Experiment [41] deals with Staphylococcus aureus. Briefly: Antibacterial activity against non-ciprofloxacin-susceptible and methicillin-susceptible Staphylococcus aureus by CLSI M100-S18 method. In kind it is functional.
Experiment [42] has as its system Staphylococcus aureus. The experiment is described as follows: Antibacterial activity against non-ciprofloxacin-susceptible and methicillin-susceptible Staphylococcus aureus assessed as percent susceptible isolates by CLSI M100-S18 method. The experiment is classed as functional.
Experiment [43] concerns Staphylococcus warneri. The experiment is described as follows: Antibacterial activity against Staphylococcus warneri assessed as percent susceptible isolates by CLSI M100-S18 method. In kind it is functional.
For experiment [44], the system named is Staphylococcus saprophyticus. The experiment is described as follows: Antibacterial activity against Staphylococcus saprophyticus assessed as percent susceptible isolates by CLSI M100-S18 method. In kind it is functional.
Experiment [45] deals with Staphylococcus aureus. Briefly: Antibacterial activity against ciprofloxacin-susceptible and methicillin-resistant Staphylococcus aureus by CLSI M100-S18 method. In kind it is functional.
Experiment [46] relates to Staphylococcus lugdunensis. Briefly: Antibacterial activity against Staphylococcus lugdunensis by CLSI M100-S18 method. In kind it is functional.
Experiment [47] deals with Staphylococcus hominis. Briefly: Antibacterial activity against Staphylococcus hominis assessed as percent susceptible isolates by CLSI M100-S18 method. The experiment is classed as functional.
The test system of a further experiment is Moraxella catarrhalis. Briefly: Antibacterial activity against Moraxella catarrhalis by CLSI M7-A7 method. The experiment is classed as functional.
Experiment [48] deals with Staphylococcus lugdunensis. The experiment is described as follows: Antibacterial activity against Staphylococcus lugdunensis assessed as percent susceptible isolates by CLSI M100-S18 method. In kind it is functional.

In brackets after ≈: the same amount, converted by molar mass. Activity calls are given as the source filed them. The rule behind the calls is not given here.

As usually defined, the MIC50 is the lowest concentration that inhibits either 50% of growth or 50% of the strains tested, depending on the study. What is called MIC90 is an inhibitory concentration at the 90% level, which refers to growth in some studies and to a panel of isolates in others. A word on the MIC: it is the lowest concentration that inhibits growth of the organism. A higher MIC goes with a less susceptible organism.

In the case of `C[C@@H](O)[C@H]1C(=O)N2C(C(=O)O)=C(SCCNC=N)C[C@H]12` [IMIPENEM ANHYDROUS], the Activity came to 91% in the experiment with Serratia marcescens [1]; 86% in the experiment with Acinetobacter lwoffii [2]; 98% with Proteus vulgaris [4]; 22.9% in experiment [5]; 88% in the experiment on Klebsiella aerogenes [8]; 88% in the experiment on Enterobacter cloacae [10]. Further, the Activity in the experiment with Citrobacter freundii [12] turned out to be 87%; in experiment [13], 38.5%; with Acinetobacter baumannii [14], 54.7%; in the experiment on Proteus mirabilis [15] it was 92%; with Pseudomonas aeruginosa [18], 97.1%; in the experiment on Klebsiella pneumoniae [19], 93%. In addition, the figures for the Activity (with Pseudomonas aeruginosa [21]; in experiment [22]) were 64.6% and 77.8%, respectively. The MIC50 is 2 µg/mL (≈ 6.68 µM) in the experiment on Serratia marcescens [3]; 0.5 µg/mL (≈ 1.67 µM) in the experiment on Pseudomonas aeruginosa [6]; 1 µg/mL (≈ 3.34 µM) against Proteus vulgaris [7]; 1 µg/mL (≈ 3.34 µM) in experiment [9]; 0.25 µg/mL (≈ 0.835 µM) against Klebsiella pneumoniae [16]; 1 µg/mL (≈ 3.34 µM) with Pseudomonas aeruginosa [17]. Also, the MIC50 against Enterobacter cloacae [20] came out at 0.5 µg/mL (≈ 1.67 µM); in the experiment with Citrobacter freundii [23], 0.5 µg/mL (≈ 1.67 µM); in the experiment on Proteus mirabilis [25] it was 1 µg/mL (≈ 3.34 µM); against Klebsiella aerogenes [26], 0.5 µg/mL (≈ 1.67 µM); with Acinetobacter lwoffii [27] it was 0.25 µg/mL (≈ 0.835 µM); in the experiment with Acinetobacter baumannii [28] it was 2 µg/mL (≈ 6.68 µM). The MIC90 in the experiment on Serratia marcescens [3] is 4 µg/mL (≈ 13.4 µM); against Pseudomonas aeruginosa [6], 1 µg/mL (≈ 3.34 µM); in the experiment with Proteus vulgaris [7] it was 2 µg/mL (≈ 6.68 µM); in [9], greater than 64 µg/mL; against Klebsiella pneumoniae [16], 0.5 µg/mL (≈ 1.67 µM); with Pseudomonas aeruginosa [17], greater than 64 µg/mL. In addition, the MIC90 with Enterobacter cloacae [20] was 8 µg/mL (≈ 26.7 µM); with Citrobacter freundii [23], 8 µg/mL (≈ 26.7 µM); in the experiment on Proteus mirabilis [25], 2 µg/mL (≈ 6.68 µM); against Klebsiella aerogenes [26], 1 µg/mL (≈ 3.34 µM); against Acinetobacter lwoffii [27], 8 µg/mL (≈ 26.7 µM); in the experiment with Acinetobacter baumannii [28], greater than 8 µg/mL. For the same molecule, the MIC in experiment [11] was 0.25 µg/mL (≈ 0.835 µM); in experiment [24] it was 1 µg/mL (≈ 3.34 µM).
As for `COc1c(N2C[C@@H]3CCCN[C@@H]3C2)c(F)cc2c(=O)c(C(=O)O)cn(C3CC3)c12`, the MIC90 entry in experiment [29] and in experiment [30] was “inactive” throughout.
As for `Cc1onc(-c2ccccc2)c1C(=O)N[C@@H]1C(=O)N2[C@@H]1SC(C)(C)[C@@H]2C(=O)O` [OXACILLIN], the Activity in experiment [31] came out at 31.7%; with Staphylococcus aureus [35] it was 78.9%; in [38], 55.6%; in experiment [39], 16.7%; in the experiment on Staphylococcus aureus [42], 36.4%; in the experiment with Staphylococcus warneri [43], 46%. Moreover, the Activity came out at 9.9% in experiment [44], 16% in the experiment with Staphylococcus hominis [47] and 60% in experiment [48]. Also, the MIC50 was 0.12 µg/mL (≈ 0.299 µM) in [32]; greater than 8 µg/mL against Staphylococcus hominis [33]; 1 µg/mL (≈ 2.49 µM) in experiment [34]; 0.5 µg/mL (≈ 1.25 µM) in experiment [36]; greater than 8 µg/mL in [37]; 0.5 µg/mL (≈ 1.25 µM) against Staphylococcus warneri [40]. Moreover, the MIC50 was greater than 8 µg/mL with Staphylococcus aureus [41], 0.25 µg/mL (≈ 0.623 µM) against Staphylococcus aureus [45], 0.5 µg/mL (≈ 1.25 µM) in experiment [46] and 4 µg/mL (≈ 9.96 µM) in the experiment with Moraxella catarrhalis. The MIC90 is greater than 8 µg/mL in the experiment with Staphylococcus hominis [33]; 1 µg/mL (≈ 2.49 µM) in [36]; greater than 8 µg/mL in experiment [37]; greater than 8 µg/mL in the experiment on Staphylococcus warneri [40]; greater than 8 µg/mL against Staphylococcus aureus [41]; greater than 8 µg/mL in the experiment on Staphylococcus aureus [45]. The MIC90 is greater than 8 µg/mL in experiment [46] and 8 µg/mL (≈ 19.9 µM) against Moraxella catarrhalis. The MIC90 result in [29] and in experiment [30] was “inactive” in each case.

(Values after ChEMBL document CHEMBL1649565, “Besifloxacin, a novel fluoroquinolone, has broad-spectrum in vitro activity against aerobic and anaerobic bacteria” (Antimicrob Agents Chemother, 2009).)
